Consider 35 compounds from patent US20180346446A1, “IRE1 SMALL MOLECULE INHIBITORS” (QUENTIS THERAPEUTICS, INC., priority 2017, published 2018).

A value given as a limit tells only on which side of the number the result lay.

What is called EC50 is the concentration at which the effect is half-maximal. Lower therefore signals greater potency. In general, IC50 refers to the concentration that inhibits the measured activity by half. A low value points to greater potency in that assay.

For assay [1], the target named is T1, IRE1a (Homo sapiens, UniProt O75460). Nature of the assay: IRE1a Endoribonuclease Nanoluciferase Assay (XBP1 luciferase reporter in 293T cells). It is filed as cell-based. The settings on record: 293T cells transfected with XBP1 luciferase reporter, ER stressors +/- inhibitors. The method, then:
Compounds disclosed herein were assessed for disruption of IRE1 signaling using a IRE1a Endoribonuclease Nanoluciferase Assay. Briefly, 2.5×10^6 293T cells were seeded in a 10 cm^2 tissue culture plate. About 24 hours later, the cells were transfected with Effectene. In a 15 mL Tube, the following was added: 2 ug XBP1 luciferase reporter plasmid (PGK-Luc2-P2A-XBP1u-Nanoluciferase-PEST); 300 ul EC buffer; and 16 ul Enhancer, followed by incubation at room temp for 5 minutes. Next, 60 ul Effectene (Qiagen 301427) was added, followed by incubation at room temperature for 10 minutes. 2.6 mL cDMEM media was added. Old media was aspirated from the cells, followed by addition of 7 mL fresh media. Full transfection mixture was added dropwise to cells. Cells were incubated for 6 hours, followed by trypsinization, centrifugation and resuspension in 11 mL media. 100 uL of cells were plated per a well in a 96 well plate. A day later, ER stressors of choice +/− inhibitors were added. To harvest, media was aspirated from cells completely, then 50 uL 1× passive lysis buffer (Promega: E1941) was added per well and put on shaker (300 rpm) for 30 minutes at room temperature. Cells were centrifuged, and 15 uL sample per well was added to a new, opaque white 384 well plate (Corning 3570). 15 uL OneGlo (nanoluciferase kit, Promega N1630) was added. Plates were spun down, placed on shaker (300 rpm) for 10 minutes. Plates were read on luminometer, 1000 ms integration time per well. 15 uL Stop and Glo (nanoluciferase kit) was added. Plates were spun down, placed on shaker (300 rpm) for 10 minutes. Plates were read on luminometer, 1000 ms second integration time per well. Recordings are provided below in Table 4.
A general note: In a reporter assay the amount or activity of a reporter protein is the signal.

For assay [2], the target named is T1, IRE1a. Nature of the assay: In vitro FRET assay (XBP1 RNA probe cleavage by IRE1a). As to conditions: 2 nM IRE1a protein. The arrangement: purchased SignalChem. In kind it is biochemical. On the procedure: In vitro FRET assay was performed to evaluate the ability of select compounds to inhibit IRE1, the results of which are summarized in Table 3. To perform the in vitro FRET assay, 1× complete assay buffer (CAB; […], 50 mM sodium citrate pH 7.15, ImM magnesium acetate, 0.02% tween 20) was used to dilute SignalChem IRE1a protein to a final concentration of 2 nM. Selected compounds were serially diluted with DMSO in a non-binding black 384-well plate for a total of 15 ul in each well. 2 ul of the serially diluted compound or DMSO control were then added to new wells containing 98 ul of 1×CAB, for a total volume of 100 ul, 10 ul of which were then transferred to wells of a new plate. 5 ul of the diluted IRE1a was then added to each well. 5 ul of a […] XBP1 RNA probe was then added to each well. Fluorescence was then read over 30 minutes in kinetic mode (485/515 nm).
Two RNA probes were used, XBP1 wildtype (SEQ ID NO: 2) which is able to be spliced by active IRE1a or XBP1 mutant (SEQ ID NO: 3) which is unable to be spliced. Each probe contained a 5′ 6-FAM modification and a 3′ IOWA Black FQ modification. […]

T1 sequence (O75460 19-977): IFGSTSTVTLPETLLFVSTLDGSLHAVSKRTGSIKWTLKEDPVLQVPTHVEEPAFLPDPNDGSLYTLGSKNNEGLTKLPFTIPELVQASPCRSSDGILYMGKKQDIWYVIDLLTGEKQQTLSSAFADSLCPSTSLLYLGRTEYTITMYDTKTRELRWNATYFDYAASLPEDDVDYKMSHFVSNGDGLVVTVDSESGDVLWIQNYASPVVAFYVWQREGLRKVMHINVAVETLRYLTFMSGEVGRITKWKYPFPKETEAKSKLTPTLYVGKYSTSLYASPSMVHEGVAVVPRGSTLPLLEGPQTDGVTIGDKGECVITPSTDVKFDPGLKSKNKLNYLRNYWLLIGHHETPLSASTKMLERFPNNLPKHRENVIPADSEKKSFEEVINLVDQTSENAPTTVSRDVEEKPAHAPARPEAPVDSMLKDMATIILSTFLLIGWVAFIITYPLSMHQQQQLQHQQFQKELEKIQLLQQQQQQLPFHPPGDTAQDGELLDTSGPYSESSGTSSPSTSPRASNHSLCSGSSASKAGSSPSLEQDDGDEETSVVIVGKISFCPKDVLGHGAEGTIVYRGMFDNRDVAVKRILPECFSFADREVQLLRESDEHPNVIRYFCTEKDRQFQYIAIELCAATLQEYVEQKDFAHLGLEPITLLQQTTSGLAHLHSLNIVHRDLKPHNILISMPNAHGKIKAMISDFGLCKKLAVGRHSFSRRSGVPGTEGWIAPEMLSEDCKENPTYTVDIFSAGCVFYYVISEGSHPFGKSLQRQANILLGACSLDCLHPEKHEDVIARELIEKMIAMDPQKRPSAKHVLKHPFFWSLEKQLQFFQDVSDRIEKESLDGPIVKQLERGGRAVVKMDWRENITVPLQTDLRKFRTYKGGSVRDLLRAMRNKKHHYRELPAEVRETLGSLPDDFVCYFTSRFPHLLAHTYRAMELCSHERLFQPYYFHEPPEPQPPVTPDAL

`CCc1cc(-c2cc(OC)c(NS(=O)(=O)c3ccccc3Cl)nn2)cc2cnc(N[C@H]3CC[C@H](N)CC3)nc12` [66; Formic Acid] gave an EC50 in assay [1] of 50 to 100 nM. Also, the IC50 in assay [2] is not above 5 nM.

For `NC12CCC(Nc3ncc4cc(-c5ccc(NS(=O)(=O)c6ccccc6Cl)c(F)c5)ccc4n3)(CC1)CC2` [81; Formic Acid], the EC50 in assay [1] was not above 5 nM. Also, the IC50 in assay [2] was not above 5 nM.

`N[C@@H]1CC[C@@H](Nc2ncc3cc(-c4ccc(NS(=O)(=O)c5ccccc5Cl)c(F)c4)ccc3n2)C1` [77; Formic Acid] came in with an EC50 in assay [1] of 5 to 50 nM. Besides, in assay [2], the IC50 was not above 5 nM.

On to “N-(4-(2-(((1r,4r)-4-aminocyclohexyl)amino)quinazolin-6-yl)-3-methylphenyl)-3-chlorobenzenesulfonamide [Compound 11]”, for which the concentration giving a half-maximal response (EC50) in assay [1] was more than 100 nM. In addition, in assay [2], the IC50 is not above 5 nM.

As to `N[C@H]1CC[C@H](Nc2cc3ccc(-c4ccc(NS(=O)(=O)c5ccccc5Cl)c(F)c4)cc3cn2)CC1` [57; Formic Acid], in assay [1], the EC50 was not above 5 nM. In addition, the IC50 in assay [2] is not above 5 nM.

Regarding `CCc1cc(-c2ccc(NS(=O)(=O)c3ccccc3Cl)c(F)c2)cc2cnc(N[C@@H]3CC[C@@H](N)C3)nc12` [78; Formic Acid], in assay [1], the EC50 is not above 5 nM. This compound showed an IC50 in assay [2] not above 5 nM.

In assay [1], `CCc1cc(-c2ccc(NS(=O)(=O)c3ccccc3C)nc2C)cc2cnc(N[C@H]3CC[C@H](N)CC3)nc12` [112; Formic Acid] had an EC50 of 5 to 50 nM. In assay [2], the IC50 is not above 5 nM.

The compound `CCc1cc(-c2cc(F)c(NS(=O)(=O)c3ccccc3Cl)cc2OC)cc2cnc(N[C@H]3CC[C@H](N(C)C)CC3)nc12` [120; Formic Acid] yielded an EC50 in assay [1] not above 5 nM. The IC50 in assay [2] is not above 5 nM.

Turning to `COc1nc(NS(=O)(=O)c2ccccc2Cl)ccc1-c1cc(C)c2nc(N[C@H]3CC[C@@H](N)CC3)ncc2c1` [138; Formic Acid], the concentration for a half-maximal effect (EC50) in assay [1] was 50 to 100 nM. This compound showed an IC50 in assay [2] not above 5 nM.

For `CCc1cc(-c2ccc(NS(=O)(=O)c3ccccc3Cl)c(F)c2)cc2cnc(N[C@H]3CCCNC3)nc12` [73; Formic Acid], in assay [1], the EC50 was not above 5 nM. Moreover, in assay [2], the IC50 was not above 5 nM.

`CCc1cc(-c2ccc(NS(=O)(=O)c3ccccc3Cl)c(F)c2)cc2cnc(N[C@H]3CC4C[C@@H](N)CC4C3)nc12` (stereo partly shown) [84; Formic Acid]: in assay [1], the concentration for a half-maximal effect (EC50) was in the range of 5 to 50 nM. Also, the IC50 in assay [2] is not above 5 nM.

As to `CCc1nc(NS(=O)(=O)c2ccccc2Cl)ccc1-c1cc(CC)c2nc(NC34CCC(N(C)C)(CC3)CC4)ncc2c1` [136; Formic Acid], the EC50 in assay [1] was not above 5 nM. Also, the IC50 in assay [2] was not above 5 nM.

In the case of `CCc1cc(-c2cc(F)c(NS(=O)(=O)c3ccccc3Cl)cc2OC)cc2cnc(N[C@H]3CC[C@H](NC)CC3)nc12` [121; Formic Acid], the EC50 in assay [1] was not above 5 nM. The compound further yielded an IC50 in assay [2] not above 5 nM.

Consider `CCc1cc(-c2ccc(NS(=O)(=O)c3ccccc3Cl)c(F)c2)cc2cnc(N[C@@H]3CCC[C@H](N)C3)nc12` [72; Formic Acid], for which the EC50 in assay [1] was more than 100 nM. Also, in assay [2], the IC50 was not above 5 nM.

In assay [1], `CCCc1cc(-c2cc(NS(=O)(=O)c3ccccc3Cl)nn2C)cc2cnc(N[C@H]3CC[C@H](N)CC3)nc12` [47; Formic Acid] had an EC50 of 5 to 50 nM. In assay [2], this compound gave an IC50 not above 5 nM.

With `CCc1cc(-c2ccc(NS(=O)(=O)c3ccccc3Cl)c(F)c2)cc2cnc(N[C@@H]3CC[C@H](N)C3)nc12` [79; Formic Acid], in assay [1], the EC50 lay in the range of 5 to 50 nM. Also, in assay [2], the IC50 was not above 5 nM.

Turning to `Cc1nc(NS(=O)(=O)c2ccccc2Cl)ncc1-c1ccc2nc(N[C@H]3CC[C@H](N)CC3)ncc2c1` [68; Formic Acid], the EC50 in assay [1] is 50 to 100 nM. This compound yielded an IC50 in assay [2] not above 5 nM.

`CCc1cc(-c2ccc(NS(=O)(=O)c3ccccc3C)nc2OC)cc2cnc(N[C@H]3CC[C@H](N)CC3)nc12` [103; Formic Acid]: in assay [1], the EC50 is not above 5 nM. The IC50 in assay [2] is not above 5 nM.

`CCc1cc(-c2ccc(NS(=O)(=O)c3ccccc3Cl)c(F)c2)cc2cnc(N[C@H]3CC[C@H](NC)CC3)nc12` [60; Formic Acid] yielded an EC50 in assay [1] not above 5 nM. In assay [2], this compound showed an IC50 not above 5 nM.

Compound `CCc1cc(-c2ncc(NS(=O)(=O)c3ccccc3Cl)cc2OC)cc2cnc(N[C@H]3CC[C@H](N)CC3)nc12` [93; Formic Acid] registered an EC50 in assay [1] not above 5 nM. This compound came in with an IC50 in assay [2] not above 5 nM.

As for `Cc1cc(NS(=O)(=O)c2ccccc2Cl)ncc1-c1ccc2nc(N[C@H]3CC[C@H](N)CC3)ncc2c1` [Compound 5, N-(5-(2-(((1r,4r)-4-aminocyclohexyl)amino)quinazolin-6-yl)-4-methylpyridin-2-yl)-2-chlorobenzenesulfonamide], the EC50 in assay [1] was more than 100 nM. In assay [2], this compound gave an IC50 not above 5 nM.

As for `CCc1cc(-c2cc(NS(=O)(=O)c3ccccc3Cl)no2)cc2cnc(N[C@H]3CC[C@H](N)CC3)nc12` [44; Formic Acid], the EC50 in assay [1] is not above 5 nM. Further, the IC50 in assay [2] was not above 5 nM.

Consider `NC12CCC(Nc3ncc4cc(-c5ccc(NS(=O)(=O)c6ccccc6Cl)c(F)c5)ccc4n3)(CC1)C2` [86; Formic Acid], for which, in assay [1], the EC50 lay within 50 to 100 nM. This compound yielded an IC50 in assay [2] not above 5 nM.

In assay [1], `CCc1cc(-c2ncc(NS(=O)(=O)c3ccccc3Cl)nc2C)cc2cnc(N[C@H]3CC[C@H](N)CC3)nc12` [94; Formic Acid] displayed an EC50 not above 5 nM. In assay [2], this compound showed an IC50 not above 5 nM.

Take `N[C@H]1CC[C@H](Nc2ncc3cc(-c4ccc(NS(=O)(=O)c5ccccc5Cl)c(F)c4F)ccc3n2)CC1` [56; Formic Acid]: the EC50 in assay [1] was not above 5 nM. In assay [2], this compound showed an IC50 not above 5 nM.

In turn, `CCc1cc(-c2ccc(NS(=O)(=O)c3ccccc3Cl)c(F)c2)cc2cnc(NC34CCC(N)(CC3)CC4)nc12` [87; Formic Acid] displayed an EC50 in assay [1] not above 5 nM. In assay [2], this compound gave an IC50 not above 5 nM.

In turn, `CCc1cc(-c2cc(NS(=O)(=O)c3ccccc3Cl)nn2C)cc2cnc(N[C@H]3CC[C@H](N)CC3)nc12` [Compound 6, N-(5-(2-(((1r,4r)-4-aminocyclohexyl)amino)-8-ethylquinazolin-6-yl)-1-methyl-1H-pyrazol-3-yl)-2-chlorobenzenesulfonamide] yielded an EC50 in assay [1] of 50 to 100 nM. The IC50 in assay [2] is not above 5 nM.

For `N[C@H]1CC[C@H](Nc2ncc3cc(-c4nnc(NS(=O)(=O)c5ccccc5Cl)s4)ccc3n2)CC1` [89; Formic Acid], the EC50 in assay [1] is more than 100 nM. In addition, in assay [2], the IC50 was not above 5 nM.

Compound `CCc1cc(-c2cc(CC)c3nc(N[C@H]4CC[C@H](N)CC4)ncc3c2)nnc1NS(=O)(=O)c1ccccc1Cl` [100; Formic Acid] had an EC50 in assay [1] of 50 to 100 nM. The same compound yielded an IC50 in assay [2] not above 5 nM.

With `Cc1cc(NS(=O)(=O)c2ccccc2Cl)ccc1-c1ccc2nc(N[C@H]3CC[C@H](N)CC3)ncc2c1` [Compound 2, N-(4-(2-(((1r,4r)-4-aminocyclohexyl)amino)quinazolin-6-yl)-3-methylphenyl)-2-chlorobenzenesulfonamide], in assay [1], the EC50 was more than 100 nM. The IC50 in assay [2] is not above 5 nM.

On to `CCc1cc(-c2ccc(NS(=O)(=O)c3ccccc3Cl)c(F)c2)cc2cnc(N[C@H]3CC4C[C@H](N)CC4C3)nc12` (stereo partly shown) [82; Formic Acid], for which the EC50 in assay [1] was in the range of 5 to 50 nM. In addition, the IC50 in assay [2] is not above 5 nM.

`COc1nc(NS(=O)(=O)c2ccccc2C#N)ccc1-c1cc2cnc(N[C@H]3CC[C@H](N)CC3)nc2cc1C` [102; Formic Acid] came in with a 50% effective concentration (EC50) in assay [1] of 50 to 100 nM. Further, the IC50 in assay [2] was not above 5 nM.

With `N[C@H]1CC[C@H](Nc2ncc3cc(-c4cnc(NS(=O)(=O)c5ccccc5Cl)c(F)c4)ccc3n2)CC1` [54; Formic Acid], the EC50 in assay [1] lay in the range of 5 to 50 nM. The compound further had an IC50 in assay [2] not above 5 nM.

In assay [1], `N[C@H]1CC[C@H](Nc2ncc3cc(-c4c(F)cc(NS(=O)(=O)c5ccccc5Cl)cc4F)ccc3n2)CC1` [62; Formic Acid] came in with an EC50 of 5 to 50 nM. The IC50 in assay [2] is not above 5 nM.

Regarding `CCc1cc(-c2ccc(NS(=O)(=O)c3ccccc3Cl)c(F)c2)cc2cnc(N[C@H]3CC[C@H](N4CCCC4)CC3)nc12` [88; Formic Acid], the EC50 in assay [1] was not above 5 nM. In assay [2], the IC50 is not above 5 nM.
